Legend:
Wee1 kinase = biological target: T1, Wee1 kinase (Homo sapiens, UniProt P30291); test: Wee1 kinase inhibitory effect (Pharmacological Test 1); format: biochemical; settings: GST-tagged Wee1 kinase, Poly(Lys, Tyr) substrate, 10 μM ATP, 30° C. for 30 minutes
T1 construct: made in house; host or cells: Sf9 insect cells (recombinant baculovirus)
Description: Pharmacological Test 1 (Wee1 Kinase Inhibitory Effect)
A cDNA of Wee1 kinase with glutathione-S-transferase (GST) fused at the amino terminal thereof was inserted into a baculovirus expression vector to construct a recombinant baculovirus, with which cells of an insect cell line Sf9 were infected to overexpress the target protein. The infected cells were collected and lysed, and then the GST-tagged Wee1 kinase protein was adsorbed to a glutathione column and eluted from the column with glutathione, and the active fraction was desalted in a desalting column to give a purified enzyme.
In measurement of the Wee1 kinase activity, a synthetic peptide, Poly(Lys, Tyr) hydrobromide (Lys:Tyr (4:1)) purchased from Sigma was used as the substrate.
The amount of the reaction mixture was 21.1 μL; and the composition of the reaction buffer was 50 mM Tris-HCl buffer (pH 7.4)/10 mM magnesium chloride/1 mM dithiothreitol. The purified Wee1 kinase, 2.5 μg of the substrate peptide, 10 μM of non-labeled adenosine triphosphate (ATP) and 1 μCi of [γ-^33P]-labeled ATP (2500 Ci/mmol or more) were added to the reaction buffer, and the resulting mixture was incubated at 30° C. for 30 minutes. Thereafter, 10 μL of 350 mM phosphate buffer was added to the reaction system to stop the reaction. The substrate peptide was adsorbed on a P81 paper filter 96-well plate and the plate was washed several times with 130 mM phosphate buffer, and the radioactivity thereof was counted using a liquid scintillation counter. The [γ-^33P]-labeled ATP was purchased from Amersham Bioscience, Ltd.
The addition of a test compound to the reaction system was carried out by preparing a series of dilutions of the compound with dimethyl sulfoxide (DMSO) and adding 1.1 μL of each dilution to the reaction system. As a control, 1.1 μL of DMSO was added to the reaction system.

[1] = test system: Cdc2 (Cdk1) tyrosine-15 phosphorylation in NCI-H1299 cells; test: Inhibitory effect on Cdc2 (Cdk1) tyrosine-15 phosphorylation in cells (Pharmacological Test 2, ELISA); format: cell-based; settings: Homo sapiens; NCI-H1299 cells pretreated with 200 nM camptothecin for 16 hours, test compound with nocodazole for 8 hours; ratio of tyrosine-15-phosphorylated Cdc2 to Cdc2
Description: Pharmacological Test 2 (Method for Determining Drug Effect Using Cells (Inhibitory Effect on Cdc2 (Cdk1) Tyrosine-15 Phosphorylation))
Fetal bovine serum (FBS) was purchased from Morgate, Inc.; an RPMI-1640 medium and a DMEM medium were purchased from Invitrogen, Inc.; camptothecin was purchased from Sigma Co.; gemcitabine was purchased from Eli Lilly Japan K.K.; nocodazole and protease inhibitor cocktail were purchased from Sigma Co.; a rabbit anti-Cdc2 antibody and a mouse anti-Cdc2 antibody were purchased from Santa Cruz Biotechnology, Inc.; a rabbit anti-tyrosine-15-phosphorylated Cdc2 antibody and a horseradish peroxidase-labeled anti-mouse IgG antibody were purchased from Cell Signaling Technology, Inc.; and Sure Blue Reserve TMB peroxidase substrate was purchased from Kirkegaard & Perry Laboratories, Inc.
A human non-small cell lung cancer cell line (NCI-H1299) and a human colon cancer cell line (WiDr) can be obtained from American Type Culture Collection (ATCC).
In the method using NCI-H1299 cells, the cells were suspended in an RPMI-1640 medium supplemented with 10% FBS, and 100 μl, of the resulting cell suspension was dispensed in a Nunclon Delta treated 96-well plastic plate purchased from Nunc, Inc. at a density of 2000 cells per well, and the plate was incubated overnight at 37° C. under an atmosphere of 5% CO2 and 95% air. Camptothecin was dissolved in dimethyl sulfoxide (DMSO) and further the resulting solution was diluted with an RPMI-1640 medium supplemented with 10% FBS. Then, 50 μL of the diluted solution was added to each well of the plate in which the cells were seeded in advance such that the final concentration of camptothecin was 200 nM, and the plate was incubated at 37° C. under an atmosphere of 5% CO2 and 95% air for 16 hours. A test compound was serially diluted with DMSO, and further diluted with an RPMI-1640 medium supplemented with 10% FBS containing 4000 nM nocodazole. Then, 50 μL of the test compound solution was added to each well of the plate in which the cells treated with camptothecin were seeded, and the plate was incubated at 37° C. under an atmosphere of 5% CO2 and 95% air for 8 hours. Then, the culture medium was removed from each well and 100 μL of a cell lysis buffer was added to each well, and the plate was shaken at 4° C. for 2 hours, and thereafter the liquid in the plate was frozen at −80° C. and then thawed, which was used as a lysed cell solution. Cdc2 and tyrosine-15-phosphorylated Cdc2 in this lysed cell solution were measured by an enzyme-linked immunosorbent assay (ELISA method), and a ratio of tyrosine-15-phosphorylated Cdc2 to Cdc2 was calculated to determine a 50% effective concentration (EC50, nM) of the test compound for inhibition of phosphorylation in cells. […]

T1 sequence (P30291 whole entry): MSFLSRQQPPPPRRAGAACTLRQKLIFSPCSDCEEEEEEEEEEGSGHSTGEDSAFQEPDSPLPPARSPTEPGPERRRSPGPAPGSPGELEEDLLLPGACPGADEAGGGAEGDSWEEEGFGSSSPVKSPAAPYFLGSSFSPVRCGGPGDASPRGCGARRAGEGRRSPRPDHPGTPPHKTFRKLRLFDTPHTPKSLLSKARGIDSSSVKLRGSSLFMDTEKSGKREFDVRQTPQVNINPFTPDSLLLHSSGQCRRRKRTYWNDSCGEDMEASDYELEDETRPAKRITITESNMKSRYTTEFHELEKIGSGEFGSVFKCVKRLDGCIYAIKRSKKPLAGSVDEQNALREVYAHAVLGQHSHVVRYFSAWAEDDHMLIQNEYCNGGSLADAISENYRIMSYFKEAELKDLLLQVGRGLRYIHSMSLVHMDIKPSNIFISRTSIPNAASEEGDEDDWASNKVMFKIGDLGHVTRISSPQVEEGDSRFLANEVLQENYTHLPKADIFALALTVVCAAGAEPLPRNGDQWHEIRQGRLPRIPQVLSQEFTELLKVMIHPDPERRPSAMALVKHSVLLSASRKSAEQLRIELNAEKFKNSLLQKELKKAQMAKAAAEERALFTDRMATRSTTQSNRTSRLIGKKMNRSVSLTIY

Compound O=C(CO)N1CCN(c2ccc(Nc3ncc4c(=O)n(-c5c(Cl)cccc5Cl)c(=O)[nH]c4n3)cc2)CC1 [Example 32, 3-(2,6-dichlorophenyl)-7-({4-[4-(hydroxyacetyl)piperazin-1-yl]phenyl}amino)pyrimido[4,5-d]pyrimidine-2,4(1H,3H)-dione] has an IC50 (Wee1 kinase) of 6 nM.
Compound Cc1cc(Nc2ncc3c(=O)n(-c4c(C)cccc4Cl)c(=O)[nH]c3n2)ccc1N1CCN(C)CC1 [Example 2, 3-(2-chloro-6-methylphenyl)-7-{[3-methyl-4-(4-methylpiperazin-1-yl)phenyl]amino}pyrimido[4,5-d]pyrimidine-2,4(1H,3H)-dione] has an IC50 [1] of 79 nM and an IC50 (Wee1 kinase) of 9 nM.
Cc1cc(Nc2ncc3c(=O)n(-c4c(Cl)cccc4Cl)c(=O)[nH]c3n2)ccc1N1CCN(C)CC1 [Example 1, 3-(2,6-dichlorophenyl)-7-{[3-methyl-4-(4-methylpiperazin-1-yl)phenyl]amino}pyrimido[4,5-d]pyrimidine-2,4(1H,3H)-dione] showed an IC50 [1] of 87 nM and an IC50 (Wee1 kinase) of 7 nM.
Cc1cc(Nc2ncc3c(=O)n(-c4c(Cl)cccc4Cl)c(=O)n(C)c3n2)ccc1N1CCN(C)CC1 [Example 3, 3-(2,6-dichlorophenyl)-1-methyl-7-{[3-methyl-4-(4-methylpiperazin-1-yl)phenyl]amino}pyrimido[4,5-d]pyrimidine-2,4(1H,3H)-dione] showed an IC50 [1] of 45 nM and an IC50 (Wee1 kinase) of 8 nM.
Work on CC(=O)N1CCN(c2ccc(Nc3ncc4c(=O)n(-c5c(Cl)cccc5Cl)c(=O)[nH]c4n3)cc2C)CC1 [Example 9, 7-{[4-(4-acetylpiperazin-1-yl)-3-methylphenyl]amino}-3-(2,6-dichlorophenyl)pyrimido[4,5-d]pyrimidine-2,4(1H,3H)-dione] yielded an IC50 (Wee1 kinase) of 4 nM.
With COC(C)(C)C(=O)N1CCN(c2ccc(Nc3ncc4c(=O)n(-c5c(Cl)cccc5Cl)c(=O)[nH]c4n3)cc2)CC1 [Example 33, 3-(2,6-dichlorophenyl)-7-({4-[4-(2-methoxy-2-methylpropionyl)piperazin-1-yl]phenyl}amino)pyrimido[4,5-d]pyrimidine-2,4(1H,3H)-dione] the IC50 (Wee1 kinase) was 9 nM.
CN1CCN(c2ccc(Nc3ncc4c(=O)n(-c5c(Cl)cccc5Cl)c(=O)n(C)c4n3)cc2)CC1 [Example 4, 3-(2,6-dichlorophenyl)-1-methyl-7-{[4-(4-methylpiperazin-1-yl)phenyl]amino}pyrimido[4,5-d]pyrimidine-2,4(1H,3H)-dione] gave an IC50 [1] of 33 nM and an IC50 (Wee1 kinase) of 33 nM.
CN1CCCN(c2ccc(Nc3ncc4c(=O)n(-c5c(Cl)cccc5Cl)c(=O)[nH]c4n3)cc2)CC1 [Example 31, 3-(2,6-dichlorophenyl)-7-{[4-(4-methyl-1,4-diazepan-1-yl)phenyl]amino}pyrimido[4,5-d]pyrimidine-2,4(1H,3H)-dione] showed an IC50 (Wee1 kinase) of 4 nM.
